PMC3505660, “Application of Collagen-Model Triple-Helical Peptide-Amphiphiles for CD44-Targeted Drug Delivery Systems” (Journal of Drug Delivery, 2012)

Columns and labels:
BJ foreskin fibroblasts = experiment: CellTiter-Glo Luminescent Cell Viability Assay (cytotoxicity), BJ; format: cell-based, human; settings: BJ cells, [DOX] = 100 μM, 3 h exposure
Source text: (§1) The M14#5 and M14#11 human metastatic melanoma cell lines were generously provided by Dr. Barbara Mueller. The BJ foreskin fibroblasts […] were obtained from the American Type Culture Collection (ATCC) (Cat# CRL-2522). Cell media (Cat# MT10-013-CV) and trypan blue (Cat# ICN1691049) were obtained from Fisher Scientific or CellGro, and all reagents required for cell culture were purchased from Invitrogen. Cells were maintained in DMEM supplemented with 10% fetal bovine serum (Cat# 10437028), 50 units/mL penicillin, and 0.05 mg/mL streptomycin (Cat# 15140163). Cells were cultured with complete medium at 37°C in a humidified atmosphere of 5% CO2 in air. For all experiments cells were harvested from subconfluent (<80%) cultures using a trypsin-EDTA (Cat# 15400054) solution and then resuspended in fresh medium. Preparations of cells with a >90% viability, as determined by trypan blue exclusion, were used.
(§2) The cytotoxicity of all liposomal systems used in this study, as well as free DOX, on the cells was determined using the CellTiter-Glo Luminescent Cell Viability Assay. The M14#5, M14#11, and BJ cells were plated on 96-well tissue cultured treated plates corning at a density of 5 × 10^3 cells per well and incubated for 24 h at 37°C and 5% CO2. The culture medium was then replaced with 100 μL of medium containing various concentrations of each liposomal system or free DOX. […]

[1] = test system: M14#5 human metastatic melanoma cells; experiment: CellTiter-Glo Luminescent Cell Viability Assay (cytotoxicity), M14#5; format: cell-based; settings: M14#5 cells, [DOX] = 100 μM, 3 h exposure
Source text: as §1, §2

[2] = set-up: method as in PMID 8313389, PMID 7865538; settings: cited from earlier work
Source text: Potential DOX delivery in vivo, however, is quite different than in vitro when one considers circulation times. […] In ...

In the case of COc1cccc2c1C(=O)c1c(O)c3c(c(O)c1C2=O)C[C@@](O)(C(=O)CO)C[C@@H]3O[C@H]1C[C@H](N)[C@H](O)[C@H](C)O1 [free DOX, doxorubicin], the cell viability (BJ foreskin fibroblasts) is given as 50–60%, the cell viability [1] is given as 50–60% and the “clearance of free DOX relative to DOX encapsulated within PEGylated liposomes” value [2] is given as 450 times faster.
